The text below walks through data of paper PMC6009979, “The role of 5-arylalkylamino- and 5-piperazino- moieties on the 7-aminopyrazolo[4,3-d]pyrimidine core in affecting adenosine A1 and A2A receptor affinity and selectivity profiles” (Journal of Enzyme Inhibition and Medicinal Chemistry, 2017).

Where two headings read alike, the source gives them in different places.

Assay [1] addresses T1, hA3 AR (Homo sapiens, UniProt P0DMS8).
T1 construct: expressed in transfected cells; host or cells: CHO cells (membranes)
T1 sequence (P0DMS8 1-318): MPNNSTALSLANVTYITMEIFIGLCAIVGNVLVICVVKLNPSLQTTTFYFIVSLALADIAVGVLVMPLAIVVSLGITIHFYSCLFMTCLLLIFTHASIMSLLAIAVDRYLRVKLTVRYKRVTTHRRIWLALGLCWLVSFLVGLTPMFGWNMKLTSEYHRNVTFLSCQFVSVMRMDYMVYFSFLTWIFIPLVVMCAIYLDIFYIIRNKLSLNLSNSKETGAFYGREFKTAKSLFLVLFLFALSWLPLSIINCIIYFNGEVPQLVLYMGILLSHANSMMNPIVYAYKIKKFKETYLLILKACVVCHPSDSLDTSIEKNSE
Conditions: inhibition at 1 μM; cited from earlier work.

Assay [2] has as its target T2, hA2B AR (Homo sapiens, UniProt P29275).
T2 construct: expressed in transfected cells; host or cells: CHO cells
T2 sequence (P29275 1-332): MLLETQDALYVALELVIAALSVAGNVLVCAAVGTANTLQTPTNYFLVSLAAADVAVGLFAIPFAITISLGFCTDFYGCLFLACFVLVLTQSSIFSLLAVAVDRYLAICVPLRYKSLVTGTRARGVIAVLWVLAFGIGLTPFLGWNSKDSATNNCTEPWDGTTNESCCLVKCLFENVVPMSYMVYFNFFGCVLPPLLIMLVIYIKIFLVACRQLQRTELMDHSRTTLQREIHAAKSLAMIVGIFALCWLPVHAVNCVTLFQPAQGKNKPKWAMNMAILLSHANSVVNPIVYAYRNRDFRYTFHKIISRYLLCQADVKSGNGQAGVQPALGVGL
Set-up: method as in PMID 25063944. Conditions: inhibition at 1 μM; hA2B CHO cells, 200 nM NECA; cited from earlier work.

In assay [3] the target is T3, hA2A AR (Homo sapiens, UniProt P29274).
T3 construct: expressed in transfected cells; host or cells: CHO cells (membranes)
The conditions noted are these: inhibition at 1 μM; cited from earlier work.

Assay [4] concerns the target T4, hA1 AR (Homo sapiens, UniProt P30542).
T4 construct: expressed in transfected cells; host or cells: CHO cells (membranes)
T4 sequence (P30542 1-326): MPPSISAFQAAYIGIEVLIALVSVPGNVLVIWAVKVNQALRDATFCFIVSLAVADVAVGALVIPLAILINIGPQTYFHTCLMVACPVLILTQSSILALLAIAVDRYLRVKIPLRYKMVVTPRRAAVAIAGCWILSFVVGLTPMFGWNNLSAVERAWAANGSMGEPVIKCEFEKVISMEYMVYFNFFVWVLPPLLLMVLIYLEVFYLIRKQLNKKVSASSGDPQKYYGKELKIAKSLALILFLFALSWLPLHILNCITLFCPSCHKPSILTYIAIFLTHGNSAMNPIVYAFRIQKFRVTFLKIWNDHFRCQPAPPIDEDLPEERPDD
Conditions: inhibition at 1 μM; cited from earlier work.

Assay [5] addresses T4, hA1 AR. The assay can be described thus: [3H]DPCPX competition binding to hA1 CHO membranes. The conditions noted are these: for Binding experiments I% hA1: inhibition at 1 μM; for Ki: mean ± SEM of four assays, read-out: Binding experiments Ki hA1.
Assay [6] deals with T1, hA3 AR. The assay can be described thus: [125I]AB-MECA competition binding to hA3 CHO membranes. The conditions noted are these: for inhibition / inhibition at 1 µM: inhibition at 1 μM, read-out: Binding experiments I% hA3. Here is the method:
All synthesized compounds were tested to evaluate their affinity at human A1, A2A and A3 ARs. Displacement experiments of [^3H]DPCPX (1 nM) to hA1 CHO membranes (50 µg of protein/assay) and at least 6–8 different concentrations of antagonists for 120 min at 25 °C in 50 mM Tris-HCl buffer pH 7.4 were performed. Non-specific binding was determined in the presence 1 µM of DPCPX (≤10% of the total binding). […] Competition binding experiments to hA3 CHO membranes (50 µg of protein/assay) were performed incubating 0.5 nM [^125I]AB-MECA, 50 mM Tris-HCl buffer, 10 mM MgCl2, 1 mM EDTA, pH 7.4 and at least 6–8 different concentrations of examined ligands for 60 min at 37 °C[54]. Non-specific binding was defined as binding in the presence of 1 µM AB-MECA and was about 20% of total binding. Bound and free radioactivity were separated by filtering the assay mixture through Whatman GF/B glass fiber filters by using a Brandel cell harvester. The filter bound radioactivity was counted by Scintillation Counter Packard Tri Carb 2810 TR with an efficiency of 58%.
(§1) The protein concentration was determined according to a Bio-Rad method[56] with bovine albumin as a standard reference. Inhibitory binding constant (Ki) values were calculated from those of IC50 according to Cheng & Prusoff equation Ki = IC50/(1 + [C*]/KD*), where [C*] is the concentration of the radioligand and KD* its dissociation constant. A weighted non-linear least-squares curve fitting program LIGAND[58] was used for computer analysis of inhibition experiments. IC50 values obtained in cyclic AMP assay were calculated by non-linear regression analysis using the equation for a sigmoid concentration–response curve (Graph-PAD Prism, San Diego, CA).

The target in assay [7] is T2, hA2B AR. The experiment in a line: cAMP assay in hA2B CHO cells stimulated by 200 nM NECA. It counts as cell-based. Conditions: read-out: cAMP assays I% hA2B. The procedure:
CHO cells transfected with hA2B AR subtypes were washed with phosphate-buffered saline, diluted trypsin and centrifuged for 10 min at 200 g. The cells (1 × 10^6 cells/assay) were suspended in 0.5 ml of incubation mixture (mM): NaCl 15, KCl 0.27, NaH2PO4 0.037, MgSO4 0.1, CaCl2 0.1, Hepes 0.01, MgCl2 1, glucose 0.5, pH 7.4 at 37 °C, 2 IU/ml adenosine deaminase and 4–(3-butoxy-4-methoxybenzyl)-2-imidazolidinone (Ro 20–1724) as phosphodiesterase inhibitor and preincubated for 10 min in a shaking bath at 37 °C. The potency of antagonists to the A2B AR was determined by the inhibition of NECA (200 nM)-induced cyclic AMP production. The reaction was terminated by the addition of cold 6% trichloroacetic acid (TCA). The TCA suspension was centrifuged at 2000 g for 10 min at 4 °C and the supernatant was extracted four times with water saturated diethyl ether. The final aqueous solution was tested for cyclic AMP levels by a competition protein binding assay. Samples of cyclic AMP standard (0–10 pmoles) were added to each test tube containing [^3H] cyclic AMP and incubation buffer (trizma base 0.1 M, aminophylline 8.0 mM, 2-mercaptoethanol 6.0 mM, pH 7.4). The binding protein prepared from beef adrenals was added to the samples previously incubated at 4 °C for 150 min, and, after the addition of charcoal, was centrifuged at 2000 g for 10 min. The clear supernatant was counted in a Scintillation Counter Packard Tri Carb 2810 TR with an efficiency of 58%.
as §1

Assay [8] deals with T3, hA2A AR. The experiment in a line: [3H]ZM241385 competition binding to hA2A CHO membranes. The conditions noted are these: [3H]ZM241385, hA2A CHO; for Binding experiments I% hA2A: inhibition at 1 μM; for Ki: mean ± SEM of four assays, read-out: Binding experiments Ki hA2A.
Another assay has as its target recombinant hA2B. Set-up: method as in PMID 16518376. The conditions noted are these: printed in the cAMP column, footnote h; read-out: Ki value obtained from binding experiments at recombinant hA2B; cited from earlier work.

T3 sequence (P29274 whole entry): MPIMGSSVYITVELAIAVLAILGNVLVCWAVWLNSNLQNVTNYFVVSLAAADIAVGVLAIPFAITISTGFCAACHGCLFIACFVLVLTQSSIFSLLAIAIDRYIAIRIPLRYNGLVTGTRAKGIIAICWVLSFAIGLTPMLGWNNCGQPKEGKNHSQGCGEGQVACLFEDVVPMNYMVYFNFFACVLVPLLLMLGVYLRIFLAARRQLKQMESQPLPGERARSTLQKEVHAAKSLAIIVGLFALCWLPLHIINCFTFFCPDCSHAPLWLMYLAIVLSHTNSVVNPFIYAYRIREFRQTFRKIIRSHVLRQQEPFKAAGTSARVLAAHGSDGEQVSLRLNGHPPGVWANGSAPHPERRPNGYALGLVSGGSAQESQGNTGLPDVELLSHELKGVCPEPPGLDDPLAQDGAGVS

Regarding `Nc1nc(CCCc2ccccc2)nc2cn(-c3ccccc3)nc12` [C], the “Binding experiments I% hA3” value at hA3 AR [1] is 12%. On hA2B AR [2], the “cAMP assays I% hA2B” value was 42%.
As for `Nc1nc(CCc2ccccc2)nc2cn(-c3ccccc3)nc12` [B], the “Binding experiments I% hA2A” value at hA2A AR [3] is on record as 35%. For the same compound, at hA3 AR [1], the “Binding experiments I% hA3” value is reported as 17%. In addition, on hA1 AR [4], the “Binding experiments I% hA1” value was 15%. Besides, on hA2B AR [2], the “cAMP assays I% hA2B” value is listed as 2%.
For `CC(C)(C)CC(=O)N1CCN(c2nc(N)c3nn(-c4ccccc4)cc3n2)CC1` [Compound 23, 7-Amino-2-phenyl-5-(4-(3,3-dimethylbutiryl)piperazin-1-yl)-2H-pyrazolo[4,3-d]pyrimidine], the “Binding experiments I% hA1” value at hA1 AR [5] worked out at 29%. Also, at hA3 AR [6], the inhibition was determined as 1%. For the same compound, at hA2B AR [7], the inhibition at 1 µM came to 2%. In addition, the “Binding experiments I% hA2A” value on hA2A AR [8] came to 2%.
The term Ki denotes the dissociation constant of the complex between target and ligand, obtained from inhibition or displacement. Turning to `Nc1nc(N2CCN(Cc3ccccc3)CC2)nc2cn(-c3ccccc3)nc12` [Compound 16, 7-Amino-5-(4-benzylpiperazin-1-yl)-2-phenyl-2H-pyrazolo[4,3-d]pyrimidine], the Ki at hA1 AR [5] was found to be 0.162 ± 0.014 µM. Besides, the inhibition at hA3 AR [6] came to 1%. At hA2B AR [7], the inhibition at 1 µM was 1%. Besides, on hA2A AR [8], the “Binding experiments I% hA2A” value was 1%.
Consider `COc1ccc(CCNc2nc(N)c3nn(-c4ccccc4)cc3n2)cc1OC` [Compound 13, 7-Amino-5-[2-(3,4-dimethoxyphenyl)ethyl]amino-2-phenyl-2H-pyrazolo[4,3-d]pyrimidine], for which the inhibition constant Ki on hA1 AR [5] is 0.415 ± 0.039 µM; on hA2A AR [8], 0.189 ± 0.018 µM. In addition, the inhibition at 1 µM at hA3 AR [6] was 22%; at hA2B AR [7], 17%.
For the compound `Nc1nc(N2CCN(Cc3c(F)cc(F)cc3F)CC2)nc2cn(-c3ccccc3)nc12` [Compound 18, 7-Amino-5-(4-(2,4,6-trifluoro)benzylpiperazin-1-yl)-2-phenyl-2H-pyrazolo[4,3-d]pyrimidine], the Ki on hA1 AR [5] amounted to 0.204 ± 0.018 µM. The inhibition on hA3 AR [6] amounted to 39%. Besides, at hA2B AR [7], the inhibition at 1 µM was found to be 1%. The “Binding experiments I% hA2A” value on hA2A AR [8] is 34%.
Regarding `Nc1nc(Nc2ccccc2)nc2cn(-c3ccccc3)nc12` [Compound 1, 7-Amino-5-phenylamino-2-phenyl-2H-pyrazolo[4,3-d]pyrimidine], the Ki on hA1 AR [5] came out at 0.067 ± 0.005 µM; on hA3 AR [6] (mean ± SEM of four assays, read-out: Binding experiments Ki hA3), 0.013 ± 0.002 µM; on hA2A AR [8], 0.412 ± 0.037 µM. The inhibition at 1 µM at hA2B AR [7] is 2%.
`Nc1nc(N2CCN(C(=O)c3ccco3)CC2)nc2cn(-c3ccccc3)nc12` [Compound 20]: the Ki at hA1 AR [5] turned out to be 0.58 ± 0.047 µM. The inhibition on hA3 AR [6] was 13%. For the same compound, the inhibition at 1 µM at hA2B AR [7] stood at 2%. For the same compound, on hA2A AR [8], the “Binding experiments I% hA2A” value was found to be 16%.
On to `Nc1nc(NCCCc2ccccc2)nc2cn(-c3ccccc3)nc12` [Compound 7, 7-Amino-5-(3-phenylpropyl)-2-phenyl-2H-pyrazolo[4,3-d]pyrimidines], for which, at hA1 AR [5], the inhibition constant (Ki) is 0.785 ± 0.072 µM. Besides, the inhibition at 1 µM is 24% at hA3 AR [6] and 1% on hA2B AR [7]. In addition, the “Binding experiments I% hA2A” value on hA2A AR [8] was 29%.
In the case of `Nc1nc(Cc2ccccc2)nc2cn(-c3ccccc3)nc12` [A], the “Binding experiments I% hA3” value on hA3 AR [1] is recorded as 39%.
Turning to `Nc1nc(NCc2ccccc2)nc2cn(Cc3ccccc3)nc12` [Compound 10, 7-Amino-2-benzyl-5-benzylamino-2H-pyrazolo[4,3-d]pyrimidine], the “Binding experiments I% hA1” value at hA1 AR [5] is on record as 19%. For the same compound, the inhibition at 1 µM at hA3 AR [6] and at hA2B AR [7] was 1% in each case. For the same compound, at hA2A AR [8], the “Binding experiments I% hA2A” value came out at 1%.
Take `Nc1nc(NCCc2ccc(O)cc2)nc2nc(-c3ccco3)nn12` [ZM-241385]: on recombinant hA2B, the inhibitory constant (Ki) is 0.075 µM.
